Source: patent US5569591A, “Analytical or monitoring apparatus and method” (priority 1990, dated 1996)

Assays:
[1] = biological target: T1, H+-ATPase in the plasma membrane of Saccharomyces cerevisiae (Saccharomyces cerevisiae, UniProt P05030); format: cell-based; parameters: endogenous in cells; host or cells: intact S. cerevisiae cells in suspension
Procedure: The spectrometer 10 comprises two electrochemical cells 11, 12. Cell 11 is a test cell containing a sample of the biological system whose nonlinear dielectric properties are being studied. In this example the biological system comprises a system comprising a suspension of S. cerevisiae. The cell concentration was approximately 50 mg dry wt. ml^-1 in a medium of 20 mM KH2 PO4, 30 mM KCl, 1 mM MgCl2 pH 6.5. Tests were carried out within four hours of preparing the suspension. Cell 12 is a reference cell comprising the supernatant of the test suspension, the conductivity of which was adjusted with distilled water to compensate for the volume fraction of cells present in the sample, to be identical to that of the sample at the frequency of interest. The cells 11, 12 were connected to a sinusoidal oscillator 13, via a Data Translation Analog to Digital converter, to an 80386 microcomputer 14.
The sample cell suspension was pipetted into the electrode cell 11 (FIG. 1), the test waveform applied to the (outer) current electrodes, and the data logged from the (inner) voltage electrodes at a sampling frequency (which was typically at 25 times the frequency of the fundamental) and for a time specified by the operator. Time was specified in terms of a number of blocks, each block consisting of 512 samples. At the end of the time specified, the data were Fourier transformed as follows. […]

[2] = biological target: vanadate-resistant ATPase of a mutant strain of yeast (Saccharomyces cerevisiae, UniProt P05030); conditions: mutant strain with vanadate-resistant ATPase
[3] = biological target: T1, H+-ATPase in the plasma membrane of Saccharomyces cerevisiae; conditions: cells metabolising added D-glucose
Procedure: As described above, a 3rd harmonic was reproducibly observed with resting cell suspensions of S. cerevisiae. This could be ascribed to the presence of the H^+ -ATPase in this organism, and should be expected to reflect a situation in which the enzyme was at static head. An experiment to determine how this behaviour might be modified when the enzyme was driven away from static head and was able (or expected) to do work was carried out. Resting cells were taken, their (usual) non-linear dielectric spectrum recorded, and a metabolisable carbon source (D-glucose) added.

T1 sequence (P05030 whole entry): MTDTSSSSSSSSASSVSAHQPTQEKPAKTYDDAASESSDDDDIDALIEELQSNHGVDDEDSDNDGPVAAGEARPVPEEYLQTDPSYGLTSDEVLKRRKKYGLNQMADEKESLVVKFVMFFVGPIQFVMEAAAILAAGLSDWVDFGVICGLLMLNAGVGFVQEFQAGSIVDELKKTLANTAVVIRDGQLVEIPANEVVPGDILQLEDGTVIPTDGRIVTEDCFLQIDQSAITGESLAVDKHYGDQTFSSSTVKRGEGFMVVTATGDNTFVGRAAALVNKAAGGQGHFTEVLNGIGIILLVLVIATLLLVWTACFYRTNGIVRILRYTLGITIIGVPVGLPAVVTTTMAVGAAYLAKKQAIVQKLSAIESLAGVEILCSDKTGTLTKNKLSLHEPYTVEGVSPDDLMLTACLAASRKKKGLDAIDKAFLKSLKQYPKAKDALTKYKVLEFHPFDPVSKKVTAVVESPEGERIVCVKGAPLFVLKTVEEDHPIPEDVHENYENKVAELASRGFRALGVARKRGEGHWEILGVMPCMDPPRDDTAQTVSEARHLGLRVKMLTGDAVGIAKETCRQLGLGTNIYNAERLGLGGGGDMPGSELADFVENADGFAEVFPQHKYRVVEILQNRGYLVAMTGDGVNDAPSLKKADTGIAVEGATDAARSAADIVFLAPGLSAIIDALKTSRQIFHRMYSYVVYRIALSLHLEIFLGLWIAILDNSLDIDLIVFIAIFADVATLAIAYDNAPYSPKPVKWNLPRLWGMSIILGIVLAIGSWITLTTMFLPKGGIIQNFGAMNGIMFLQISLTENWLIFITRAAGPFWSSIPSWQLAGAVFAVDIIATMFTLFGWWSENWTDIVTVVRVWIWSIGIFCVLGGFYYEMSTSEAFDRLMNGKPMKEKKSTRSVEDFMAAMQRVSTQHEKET
vanadate-resistant ATPase of a mutant strain of yeast, sequence (P05030 whole entry, change not shown): as the sequence (P05030 whole entry) above

Molecule	generation of harmonics ([1]; 0.2 pmol/mg dry wt of cells)	generation of the 3rd harmonic ([1]; 1 mM sodium metavanadate, FIG. 12)	generation of harmonics in the presence of vanadate [2]	even (2nd and 4th) harmonics in the presence of vanadate [3]
C(=NC(c1ccccc1)c1ccccc1)=NC(c1ccccc1)c1ccccc1 [dibenzhydryl carbodiimide]	completely abolished	–	–	–
sodium metavanadate	–	essentially completely abolished	vanadate resistant	vanadate-sensitive
